Reference: patent publication US20050261250A1, “Compositions and methods for inhibiting bone resorption” (Merck & Co., Inc.,, priority 2004, published 2005)

Assays:
[1] = Autoxidative lability of vitamin D3 as oil or amorphous solid (HPLC); type: physicochemical; conditions: 20-40° C., within hours
Source text: It is also understood that vitamin D can undergo autoxidation through induction by a free radical initiator or spontaneously in solid or solution phase to form a variety of products, some of which have been identified. Representative characterization of vitamin D degradation (and, specifically, vitamin D3 in this instance) in embodiments of compositions of the present invention confirms the autoxidative lability of vitamin D3 in which vitamin D3 was converted to an oil or amorphous solid and exposed to temperatures from 20-40° C. […] At longer exposure times, these absorptions continued to decrease as further reaction occurred.

[2] = cited from earlier work

Row | SMILES | HPLC analysis of vitamin D3 after exposure [1] | aqueous solubility [2]
1 | C=C1CC[C@H](O)C/C1=C/C=C1\CCC[C@]2(C)[C@@H]([C@H](C)CCCC(C)C)CC[C@@H]12 [Vitamin D3, cholecalciferol] | extensive destruction | –
2 | C=C1CC[C@H](O)C/C1=C/C=C1\CCC[C@]2(C)[C@@H]([C@H](C)/C=C/[C@H](C)C(C)C)CC[C@@H]12 [vitamin D2, ergocalciferol] | – | water insoluble
